Test results: patent US9181265B2, “Substituted 2,3-dihydro-1H-benzo[a]pyrano[2,3-c]phenazines as anti-angiogenic and anti-cancer agents” (UNIVERSITE CATHOLIQUE DE LOUVAIN, priority 2010, dated 2015)
Like-named read-outs stand apart in the source and are kept apart here. Marks after values point to notes of the source that are not given here.

How the values were obtained:
siHa = assay: MTT test of overall cell growth, SiHa cervix cancer cells, normoxia or hypoxia; type: cell-based, human; conditions: for Selectivity: IC50 (normoxia)/IC50 (hypoxia 1% O2), if u.t.d., ratio of activity at 100 μM
Method: (§1) MTT tests were performed in order to rapidly, i.e. within 3 days, measure the effect of compounds of this invention on the overall cell growth. The test measured the number of metabolically active living cells that were able to transform the yellow product 3-(4,5-dimethylthiazol-2-yl)-2,5-diphenyl tetrazolium bromide (herein referred as MTT) into the blue product formazan dye by mitochondrial reduction. The amount of formazan obtained at the end of the experiment, measured by means of a spectrophotometer (Plate Reader Victor X4 Microplate reader (Perkin Elmer), is directly proportional to the number of living cells. Optical density determination thus enabled a quantitative measurement of the effect of the investigated compounds under control conditions (normoxia) as compared to the hypoxic conditions (0.1 or 1% O2) and/or untreated conditions.
(§2) Human umbilical vein endothelial cells (HUVEC) and six human cancer cell lines were used in the MTT tests. These cancer cell lines cover five histological cancer types including cervix (SiHa), breast (MCF-7 and MDA-MB231), prostate (PC3), glioma (U373), and colorectal (LoVo) cancers.
(§3) To perform the assay, cells were allowed to grow in 96-well microplates with a flat bottom following addition of an amount of 100 μl of cell suspension per well with 4,500 cells/well. Each cell line was seeded in its appropriate culture medium. HUVEC were cultured in a specific endothelial cell growth medium (ECACC, Sigma); SiHa cells in Glutamax-containing DMEM with 4.5 g/1 glucose (Invitrogen) supplemented with 10% Foetal Bovine Serum (PAA) and 1% penicillin+streptomycin mix (Invitrogen); MCF-7, MDA-MB-231, PC3, and LoVo cells in Glutamax-containing RPMI supplemented with 10% Foetal Bovine Serum (PAA) and 1% penicillin+streptomycin mix (Invitrogen) and U373 cells in Glutamax-containing DMEM (Invitrogen) with 5% Foetal Bovine Serum (PAA) and 1% penicillin+streptomycin mix (Invitrogen).
(§4) The detailed experimental procedure was the following: after a 24-hour period of incubation at 37° C., the culture medium was replaced by 100 μl of fresh medium in which the tested compound was previously dissolved, at the following concentrations: 10^−8 M, 5.10^−8, 10^−7, 5.10^−7, 10^−6, 5.10^−6, 10^−5, 5.10^−5 and 10^−[…]. Each experiment was performed in sestuplicates (6 times).
(§5) Cells were then incubated under normoxia in a Binder incubator (the O2 level corresponding to the concentration in the ambient air), or in a Ruskin hypoxia workstation under either 0.1% O2 (v/v) or 1% O2 (v/v). Under both conditions, the atmosphere was humidified and the CO2 concentration was fixed at 5 vol. %.
(§6) After 72 hours of incubation at 37° C. under normoxic or hypoxic conditions, with or without the compound to be tested, the medium was replaced by 100 μl of HBSS (without phenol red) containing MTT at a concentration of 0.5 or 1 mg/ml. The micro-wells were subsequently incubated during 3 hours and a half at 37° C. and centrifuged at 1300 rpm during 10 minutes. Medium was removed and formazan crystals formed were dissolved in 100 μl DMSO. The micro-wells were shaken for 5 minutes and read on a spectrophotometer at wavelengths of 570 nm (maximal formazan absorbance).
(§7) For each experimental condition, the mean optical density was calculated, allowing the determination of the percentage of living cells in comparison to the control.

MCF-7 = assay: MTT test of overall cell growth, MCF-7 breast cancer cells, normoxia or hypoxia; type: cell-based, human; conditions: for Selectivity: MCF-7, IC50 (normoxia)/IC50 (hypoxia 1% O2), if u.t.d., ratio of activity at 100 μM
Method: as §1, §2, §3, §4, §5, §6, §7

MDA-MB-231 = assay: MTT test of overall cell growth, MDA-MB-231 breast cancer cells, normoxia or hypoxia; type: cell-based, human; conditions: for Selectivity: MDA-MB-231, IC50 (normoxia)/IC50 (hypoxia 1% O2), if u.t.d., ratio of activity at 100 μM
Method: as §1, §2, §3, §4, §5, §6, §7

PC3 = assay: MTT test of overall cell growth, PC3 prostate cancer cells, normoxia or hypoxia; type: cell-based, human; conditions: for Selectivity: PC3, IC50 (normoxia)/IC50 (hypoxia 1% O2), if u.t.d., ratio of activity at 100 μM
Method: as §1, §2, §3, §4, §5, §6, §7

U373 = assay: MTT test of overall cell growth, U373 glioma cells, normoxia or hypoxia; type: cell-based, human; conditions: for Selectivity: U373, IC50 (normoxia)/IC50 (hypoxia 1% O2), if u.t.d., ratio of activity at 100 μM
Method: as §1, §2, §3, §4, §5, §6, §7

[1] = test system: Human umbilical vein endothelial cells (HUVEC); assay: MTT test of overall cell growth, endothelial cells, normoxic or hypoxic conditions; type: cell-based; conditions: for Selectivity: if u.t.d., ratio of activity at 100 μM
Method: as §1, §2, §3, §4, §5, §6, §7

LoVo = assay: MTT test of overall cell growth, LoVo colorectal cancer cells, normoxia or hypoxia; type: cell-based, human; conditions: for Selectivity: IC50 (normoxia)/IC50 (hypoxia 1% O2), if u.t.d., ratio of activity at 100 μM
Method: as §1, §2, §3, §4, §5, §6, §7

[2] = Homo sapiens, hypoxia 1% O2, 72 h, read-out: IC50 (μM) Hypoxia 1% O2
[3] = Homo sapiens, MCF7, MCF-7, hypoxia 1% O2, 72 h, read-out: IC50 (μM) Hypoxia 1% O2
[4] = Homo sapiens, MDA-MB-231, hypoxia 1% O2, 72 h, read-out: IC50 (μM) Hypoxia 1% O2
[5] = Homo sapiens, U373 MG, U373, hypoxia 1% O2, 72 h, read-out: IC50 (μM) Hypoxia 1% O2
[6] = Homo sapiens, 72 h, hypoxia 0.1% O2, 72 h, read-out: IC50 (μM) Hypoxia 0.1%
[7] = Homo sapiens, 72 h, hypoxia 1% O2, 72 h, read-out: IC50 (μM) Hypoxia 1%
[8] = Homo sapiens, 72 h, normoxia, 72 h, series compared with hypoxia 0.1%, read-out: IC50 (μM) Normoxia
[9] = Homo sapiens, 72 h, normoxia, 72 h, series compared with hypoxia 1%, read-out: IC50 (μM) Normoxia
[10] = IC50 (normoxia)/IC50 (hypoxia 0.1%)
[11] = IC50 (normoxia)/IC50 (hypoxia 1%)
[12] = Homo sapiens, normoxia, 72 h, read-out: IC50 (μM) Normoxia
[13] = hypoxia 1% O2, 72 h, read-out: IC50 (μM) Hypoxia 1% O2
[14] = normoxia, 72 h, read-out: IC50 (μM) Normoxia

Structure (SMILES) | IC50 (siHa; [2]) [µM] | Selectivity (siHa) | IC50 (μM) Normoxia (siHa; normoxia, 72 h) | IC50 (MCF-7; [3]) [µM] | IC50 (μM) Normoxia (MCF-7; MCF-7, normoxia, 72 h) | Selectivity (MCF-7) | IC50 (MDA-MB-231; [4]) [µM] | IC50 (μM) Normoxia (MDA-MB-231; MDA-MB-231, normoxia, 72 h) | Selectivity (MDA-MB-231) | IC50 (μM) Normoxia (PC3; PC3, normoxia, 72 h) | IC50 (U373; [5]) [µM] | IC50 (μM) Normoxia (U373; U373, normoxia, 72 h) | Selectivity (U373) | IC50 [1, 6] [µM] | IC50 [1, 7] [µM] | IC50 [1, 8] [µM] | IC50 [1, 9] [µM] | Selectivity [1, 10] | Selectivity [1, 11] | Selectivity (LoVo) | other results
COc1ccc(CNC(=O)c2ccc3nc4c(nc3c2)c2c(c3ccccc34)OC(C)(C)[C@H]3CC[C@H](C)C[C@H]23)c(OC)c1 [Compound 16′] | 92.1 | >1.89^b | u.t.d. | 91.2 | u.t.d. | >1.91^b | 126 | u.t.d. | >1.38^b | u.t.d. | 113 | u.t.d. | >1.54^b | 0.21 | 7.96 | 16.7 | 120 | 80 | 15 | 0.76 | IC50 (μM) Hypoxia 1% O2 (PC3; PC3, hypoxia 1% O2, 72 h): u.t.d.; IC50 (LoVo; [2]): 154 µM; IC50 (LoVo; [12]): 116 µM
C[C@H]1CC[C@H]2[C@H](C1)c1c(c3ccccc3c3nc4cc(C(=O)N[C@@H](CO)Cc5ccccc5)ccc4nc13)OC2(C)C [Compound 17] | – | 7.12 | – | – | – | 1.10 | – | – | 1.17 | – | – | – | 5.65 | – | – | – | – | 134 | 8 | 1.04 | IC50 (siHa; [13]): 10.5 µM; IC50 (siHa; [14]): 75 µM; IC50 (MCF-7; MCF-7, hypoxia 1% O2, 72 h, read-out: IC50 (μM) Hypoxia 1% O2): 11.1 µM; IC50 (MCF-7; MCF-7, normoxia, 72 h, read-out: IC50 (μM) Normoxia): 12.2 µM; IC50 (MDA-MB-231; MDA-MB-231, hypoxia 1% O2, 72 h, read-out: IC50 (μM) Hypoxia 1% O2): 11.4 µM; IC50 (MDA-MB-231; MDA-MB-231, normoxia, 72 h, read-out: IC50 (μM) Normoxia): 13.4 µM; IC50 (PC3; PC3, hypoxia 1% O2, 72 h, read-out: IC50 (μM) Hypoxia 1% O2): 11.1 µM; IC50 (PC3; PC3, normoxia, 72 h, read-out: IC50 (μM) Normoxia): 10.4 µM; Selectivity (PC3): 0.94; IC50 (U373; U373, hypoxia 1% O2, 72 h, read-out: IC50 (μM) Hypoxia 1% O2): 1.23 µM; IC50 (U373; U373, normoxia, 72 h, read-out: IC50 (μM) Normoxia): 6.97 µM; IC50 ([1]; hypoxia 0.1% O2, 72 h, read-out: IC50 (μM) Hypoxia 0.1%): 0.05 µM; IC50 ([1]; hypoxia 1% O2, 72 h, read-out: IC50 (μM) Hypoxia 1%): 0.63 µM; IC50 ([1]; normoxia, 72 h, series compared with hypoxia 0.1%, read-out: IC50 (μM) Normoxia): 6.25 µM; IC50 ([1]; normoxia, 72 h, series compared with hypoxia 1%, read-out: IC50 (μM) Normoxia): 5.18 µM; IC50 (LoVo; [13]): 9.47 µM; IC50 (LoVo; [14]): 9.83 µM
COC(=O)c1ccc2nc3c(nc2c1)c1c(c2ccccc23)OC(C)(C)[C@H]2CC[C@H](C)C[C@H]12 [Compound 11′] | 132 | >1.72^b | u.t.d. | 150 | u.t.d. | >1.52^b | 136 | u.t.d. | >1.67^b | u.t.d. | 74.9 | u.t.d. | >3.03^b | 13.6 | 11.8 | 225 | 176 | 16.5 | 15 | 1.43 | IC50 (PC3; Homo sapiens, PC-3, PC3, hypoxia 1% O2, 72 h, read-out: IC50 (μM) Hypoxia 1% O2): 161 µM; Selectivity (PC3): >1.41^b; IC50 (LoVo; [2]): 154 µM; IC50 (LoVo; [12]): 220 µM
